Laboratory results from ChEMBL document CHEMBL1201862, “PubChem BioAssay data set” (2004).
Activity calls are given as the source filed them.

Columns and labels:
Nonstructural protein 1 = Nonstructural protein 1 (Influenza A virus, UniProt Q194T2); assay type: functional, Influenza A virus (A/California/07/2009(H1N1))
[1] = target: Luciferin 4-monooxygenase (Photinus pyralis, UniProt P08659); assay: inhibition of purified Photinus pyralis luciferase – biochemical, luminescence, dose response (AID 1891)
HEK293 = assay: EBV LMP1 TES2 canonical NF-kB signalling blockers – cell-based, HEK293, luciferase, cherry-pick, dose response (AID 588343); assay type: functional; conditions: Homo sapiens
[2] = Luminescence Cell-Based Dose Confirmation HTS to Identify Inhibitors of Platelet Dense Granule Release. [Related pubchem assays: 1663 (Primary HTS), 1678 (Summary of Project)]; assay type: functional
Cytochrome P450 3A4 [3] = target: T1, Cytochrome P450 3A4 (Homo sapiens, UniProt P08684); conditions: Potency
[4] = target: T2, Zinc finger protein mex-5 (Caenorhabditis elegans, UniProt Q9XUB2); assay: potency of MEX-5 RNA-binding blockers – biochemical, C. elegans, fluorescence polarization, dose response (AID 1960)
T2 sequence (Q9XUB2 whole entry): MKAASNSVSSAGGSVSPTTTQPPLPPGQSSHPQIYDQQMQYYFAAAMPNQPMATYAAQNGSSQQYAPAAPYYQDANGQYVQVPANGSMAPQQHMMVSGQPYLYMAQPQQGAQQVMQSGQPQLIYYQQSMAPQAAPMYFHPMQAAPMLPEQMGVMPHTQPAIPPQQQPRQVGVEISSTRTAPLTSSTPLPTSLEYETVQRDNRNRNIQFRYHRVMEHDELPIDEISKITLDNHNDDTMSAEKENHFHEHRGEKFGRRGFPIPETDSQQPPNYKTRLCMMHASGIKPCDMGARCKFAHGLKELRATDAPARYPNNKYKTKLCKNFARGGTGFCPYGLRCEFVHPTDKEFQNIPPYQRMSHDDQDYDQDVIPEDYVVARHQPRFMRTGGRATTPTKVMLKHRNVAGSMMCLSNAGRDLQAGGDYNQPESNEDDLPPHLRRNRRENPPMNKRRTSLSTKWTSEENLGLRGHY

[5] = target: T3, RNA-binding protein pos-1 (Caenorhabditis elegans, UniProt G5EF15); assay: disruptors of C. elegans POS-1 RNA interaction – biochemical, fluorescence polarization, dose response (AID 1964);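 note: purified POS-1 fused to maltose binding protein made in E. coli; potency of compounds blocking POS-1 binding to fluorescent RNA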
T3 sequence (G5EF15 whole entry): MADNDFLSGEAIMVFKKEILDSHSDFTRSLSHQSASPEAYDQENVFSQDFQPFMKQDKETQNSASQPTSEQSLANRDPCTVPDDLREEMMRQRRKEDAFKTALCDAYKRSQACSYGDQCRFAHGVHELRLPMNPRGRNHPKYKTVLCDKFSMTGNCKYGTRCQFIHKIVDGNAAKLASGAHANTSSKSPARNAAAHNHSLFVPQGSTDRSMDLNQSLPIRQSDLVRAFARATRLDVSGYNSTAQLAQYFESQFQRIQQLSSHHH

INS1 = assay: INS-1E survival protection against cytokine death – cell-based, luminescence, retest, dose response (AID 449756); assay type: functional; conditions: Rattus norvegicus;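 note: cell death triggered by IL-1 beta plus TNF-alpha plus IFN-gamma mixture; protective hits raise ATP signal compared with cytokine alone wells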
Cytochrome P450 2C19 = Cytochrome P450 2C19 (Homo sapiens, UniProt P33261); assay: Cytochrome panel assay with activity outcomes. Panel member name: p450-cyp2c19 Compounds with AC50 equal or less than 10 uM are considered active; assay type: functional; conditions: read-out: AC50
Cytochrome P450 1A2 = target: T4, Cytochrome P450 1A2 (Homo sapiens, UniProt P05177);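 note: PubChem cytochrome P450 panel assay, CYP1A2 panel member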
T4 sequence (P05177 whole entry): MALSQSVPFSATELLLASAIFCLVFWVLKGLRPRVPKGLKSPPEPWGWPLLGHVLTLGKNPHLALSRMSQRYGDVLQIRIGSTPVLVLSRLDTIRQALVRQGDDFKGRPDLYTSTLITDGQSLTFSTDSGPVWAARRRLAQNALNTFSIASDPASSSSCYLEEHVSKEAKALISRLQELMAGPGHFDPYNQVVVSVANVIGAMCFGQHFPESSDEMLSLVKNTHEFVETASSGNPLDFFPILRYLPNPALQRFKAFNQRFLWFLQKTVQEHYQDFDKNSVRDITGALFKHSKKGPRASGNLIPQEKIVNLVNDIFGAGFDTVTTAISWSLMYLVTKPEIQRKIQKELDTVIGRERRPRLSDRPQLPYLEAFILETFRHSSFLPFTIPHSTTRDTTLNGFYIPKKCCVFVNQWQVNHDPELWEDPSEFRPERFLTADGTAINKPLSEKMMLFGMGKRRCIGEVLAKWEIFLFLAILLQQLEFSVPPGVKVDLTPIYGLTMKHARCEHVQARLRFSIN

Cytochrome P450 3A4 [6] = target: T1, Cytochrome P450 3A4
cells [7] = assay type: functional, cell-based
cells [8] = assay type: functional, cell-based; remark: listed apart in the source
[9] = target: T5, Heat shock factor protein 1 (Mus musculus, UniProt P38532); assay: decrease of HSF1-responsive luciferase luminescence – cell-based, NIH3T3, dose retest, confirmation (AID 2382); assay type: functional;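 note: NIH3T3 fibroblasts with HSF1-driven luciferase reporter stressed by proteasome inhibitor MG132; luminescence from HSF1-driven luciferase expression after 8 hours of MG132 stress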
T5 sequence (P38532 whole entry): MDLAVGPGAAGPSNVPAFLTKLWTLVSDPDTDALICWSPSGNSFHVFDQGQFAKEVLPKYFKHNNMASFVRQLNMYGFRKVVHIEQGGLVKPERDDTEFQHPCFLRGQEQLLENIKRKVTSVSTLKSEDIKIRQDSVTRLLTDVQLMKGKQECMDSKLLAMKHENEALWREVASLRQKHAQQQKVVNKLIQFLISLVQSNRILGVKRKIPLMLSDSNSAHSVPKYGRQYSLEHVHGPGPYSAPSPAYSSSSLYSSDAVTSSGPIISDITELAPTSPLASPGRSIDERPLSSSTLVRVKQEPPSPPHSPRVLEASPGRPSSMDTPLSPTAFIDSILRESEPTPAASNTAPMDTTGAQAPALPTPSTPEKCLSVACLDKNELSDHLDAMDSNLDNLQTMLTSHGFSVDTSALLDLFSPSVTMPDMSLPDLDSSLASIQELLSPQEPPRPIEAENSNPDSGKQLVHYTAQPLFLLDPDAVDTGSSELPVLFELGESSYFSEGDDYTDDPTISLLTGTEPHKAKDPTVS

[10] = Luminescence Cell-Based Dose Retest to Confirm Inhibitors of Cancer Stem Cells. [Related pubchem assays (depositor defined):AID2717, AID2721]; assay type: functional; conditions: Homo sapiens
[11] = loss of viability in HepG2 cells – cell-based, CellTiter-Glo, cherry-picked, cytotoxicity control for Shn3 inhibitor project, dose response (AID 624134); assay type: functional
[12] = viability of PTEN-deleted HCT116 cells – cell-based, HCT116 PTEN knockout, dose response (AID 1047); assay type: functional;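 note: HCT116 colon tumor cells with PTEN knocked out; cells exposed to compound for 60 hours before readout; potency for loss of cell viability measured by luminescence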
[13] = reduction of Shn3 3'UTR-driven luciferase in osteoblasts – cell-based, Clone20 osteoblasts, firefly luciferase, cherry-picked, dose response (AID 624132); assay type: functional;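 note: firefly luciferase luminescence from reporter carrying the Shn3 3'UTR in osteoblasts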
[14] = non-specific 3'UTR reporter inhibition in Clone20-Shn3RL – cell-based, Renilla luciferase, cherry-picked, counter-screen for Shn3 inhibitor project, dose response (AID 624133); assay type: functional
[15] = viability of HCT116 lacking mutant beta-catenin – cell-based, human colon tumor, dose response (AID 1045); assay type: functional;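 note: HCT116 colon tumor cells with beta catenin knocked out; cells exposed to compound for 60 hours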
Paired box protein Pax-8 = Paired box protein Pax-8 (Homo sapiens, UniProt Q06710); assay: PAX8 transcriptional activity inhibition in RMG-I – RMG-I cells, luciferase, cherry-pick, dose response (AID 687027); assay type: functional, cell-based;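 note: luciferase reporter driven by Pax8 target thyroperoxidase promoter measured by SteadyGlo luminescence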
Large T antigen = Large T antigen (Simian virus 40, UniProt P03070); assay type: functional, Betapolyomavirus macacae;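 note: Confirmatory-stage PubChem screen for compounds that inhibit SV40 T antigen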
Fatty acid synthase [16] = target: T6, Fatty acid synthase (Homo sapiens, UniProt P49327); assay: inhibition of human FAS-TE enzyme activity – biochemical, endpoint fluorescence intensity, uHTS hits, dose response (AID 624327); assay type: functional;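 note: fluorescence from hydrolysis of an O-methyl fluorescein acyl ester substrate by the enzyme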
Fatty acid synthase [17] = target: T6, Fatty acid synthase; assay: inhibition of human FAS-TE enzyme activity – biochemical, kinetic fluorescence intensity, dose response (AID 624326); assay type: functional;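 note: rate of fluorescence rise from hydrolysis of a fluorogenic O-methyl fluorescein ester substrate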
[18] = viability of uninfected HEp-2 cells – cell-based, HTS, cytotoxicity control for RSV inhibitor project, dose response (AID 2410); assay type: functional; conditions: human respiratory syncytial virus

T1 sequence (P08684 whole entry): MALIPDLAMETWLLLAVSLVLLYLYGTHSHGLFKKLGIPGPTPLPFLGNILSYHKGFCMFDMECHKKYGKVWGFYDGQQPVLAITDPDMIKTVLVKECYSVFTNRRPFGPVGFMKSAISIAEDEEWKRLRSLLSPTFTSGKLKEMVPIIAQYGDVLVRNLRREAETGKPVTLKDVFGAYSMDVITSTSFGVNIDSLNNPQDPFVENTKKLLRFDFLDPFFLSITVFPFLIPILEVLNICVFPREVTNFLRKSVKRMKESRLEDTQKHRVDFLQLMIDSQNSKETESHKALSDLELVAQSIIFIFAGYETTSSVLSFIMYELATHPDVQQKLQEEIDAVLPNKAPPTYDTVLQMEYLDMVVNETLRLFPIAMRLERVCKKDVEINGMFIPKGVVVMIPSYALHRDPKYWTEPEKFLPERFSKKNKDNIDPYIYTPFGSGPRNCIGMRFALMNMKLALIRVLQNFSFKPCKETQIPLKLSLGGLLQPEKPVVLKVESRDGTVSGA
Chain of Nonstructural protein 1 (Q194T2 whole entry): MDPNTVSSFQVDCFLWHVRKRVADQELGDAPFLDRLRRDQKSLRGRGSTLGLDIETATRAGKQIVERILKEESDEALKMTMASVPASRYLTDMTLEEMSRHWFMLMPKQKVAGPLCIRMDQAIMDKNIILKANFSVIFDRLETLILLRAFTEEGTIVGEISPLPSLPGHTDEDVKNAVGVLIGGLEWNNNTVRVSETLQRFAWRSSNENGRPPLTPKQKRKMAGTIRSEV
T6 sequence (P49327 whole entry): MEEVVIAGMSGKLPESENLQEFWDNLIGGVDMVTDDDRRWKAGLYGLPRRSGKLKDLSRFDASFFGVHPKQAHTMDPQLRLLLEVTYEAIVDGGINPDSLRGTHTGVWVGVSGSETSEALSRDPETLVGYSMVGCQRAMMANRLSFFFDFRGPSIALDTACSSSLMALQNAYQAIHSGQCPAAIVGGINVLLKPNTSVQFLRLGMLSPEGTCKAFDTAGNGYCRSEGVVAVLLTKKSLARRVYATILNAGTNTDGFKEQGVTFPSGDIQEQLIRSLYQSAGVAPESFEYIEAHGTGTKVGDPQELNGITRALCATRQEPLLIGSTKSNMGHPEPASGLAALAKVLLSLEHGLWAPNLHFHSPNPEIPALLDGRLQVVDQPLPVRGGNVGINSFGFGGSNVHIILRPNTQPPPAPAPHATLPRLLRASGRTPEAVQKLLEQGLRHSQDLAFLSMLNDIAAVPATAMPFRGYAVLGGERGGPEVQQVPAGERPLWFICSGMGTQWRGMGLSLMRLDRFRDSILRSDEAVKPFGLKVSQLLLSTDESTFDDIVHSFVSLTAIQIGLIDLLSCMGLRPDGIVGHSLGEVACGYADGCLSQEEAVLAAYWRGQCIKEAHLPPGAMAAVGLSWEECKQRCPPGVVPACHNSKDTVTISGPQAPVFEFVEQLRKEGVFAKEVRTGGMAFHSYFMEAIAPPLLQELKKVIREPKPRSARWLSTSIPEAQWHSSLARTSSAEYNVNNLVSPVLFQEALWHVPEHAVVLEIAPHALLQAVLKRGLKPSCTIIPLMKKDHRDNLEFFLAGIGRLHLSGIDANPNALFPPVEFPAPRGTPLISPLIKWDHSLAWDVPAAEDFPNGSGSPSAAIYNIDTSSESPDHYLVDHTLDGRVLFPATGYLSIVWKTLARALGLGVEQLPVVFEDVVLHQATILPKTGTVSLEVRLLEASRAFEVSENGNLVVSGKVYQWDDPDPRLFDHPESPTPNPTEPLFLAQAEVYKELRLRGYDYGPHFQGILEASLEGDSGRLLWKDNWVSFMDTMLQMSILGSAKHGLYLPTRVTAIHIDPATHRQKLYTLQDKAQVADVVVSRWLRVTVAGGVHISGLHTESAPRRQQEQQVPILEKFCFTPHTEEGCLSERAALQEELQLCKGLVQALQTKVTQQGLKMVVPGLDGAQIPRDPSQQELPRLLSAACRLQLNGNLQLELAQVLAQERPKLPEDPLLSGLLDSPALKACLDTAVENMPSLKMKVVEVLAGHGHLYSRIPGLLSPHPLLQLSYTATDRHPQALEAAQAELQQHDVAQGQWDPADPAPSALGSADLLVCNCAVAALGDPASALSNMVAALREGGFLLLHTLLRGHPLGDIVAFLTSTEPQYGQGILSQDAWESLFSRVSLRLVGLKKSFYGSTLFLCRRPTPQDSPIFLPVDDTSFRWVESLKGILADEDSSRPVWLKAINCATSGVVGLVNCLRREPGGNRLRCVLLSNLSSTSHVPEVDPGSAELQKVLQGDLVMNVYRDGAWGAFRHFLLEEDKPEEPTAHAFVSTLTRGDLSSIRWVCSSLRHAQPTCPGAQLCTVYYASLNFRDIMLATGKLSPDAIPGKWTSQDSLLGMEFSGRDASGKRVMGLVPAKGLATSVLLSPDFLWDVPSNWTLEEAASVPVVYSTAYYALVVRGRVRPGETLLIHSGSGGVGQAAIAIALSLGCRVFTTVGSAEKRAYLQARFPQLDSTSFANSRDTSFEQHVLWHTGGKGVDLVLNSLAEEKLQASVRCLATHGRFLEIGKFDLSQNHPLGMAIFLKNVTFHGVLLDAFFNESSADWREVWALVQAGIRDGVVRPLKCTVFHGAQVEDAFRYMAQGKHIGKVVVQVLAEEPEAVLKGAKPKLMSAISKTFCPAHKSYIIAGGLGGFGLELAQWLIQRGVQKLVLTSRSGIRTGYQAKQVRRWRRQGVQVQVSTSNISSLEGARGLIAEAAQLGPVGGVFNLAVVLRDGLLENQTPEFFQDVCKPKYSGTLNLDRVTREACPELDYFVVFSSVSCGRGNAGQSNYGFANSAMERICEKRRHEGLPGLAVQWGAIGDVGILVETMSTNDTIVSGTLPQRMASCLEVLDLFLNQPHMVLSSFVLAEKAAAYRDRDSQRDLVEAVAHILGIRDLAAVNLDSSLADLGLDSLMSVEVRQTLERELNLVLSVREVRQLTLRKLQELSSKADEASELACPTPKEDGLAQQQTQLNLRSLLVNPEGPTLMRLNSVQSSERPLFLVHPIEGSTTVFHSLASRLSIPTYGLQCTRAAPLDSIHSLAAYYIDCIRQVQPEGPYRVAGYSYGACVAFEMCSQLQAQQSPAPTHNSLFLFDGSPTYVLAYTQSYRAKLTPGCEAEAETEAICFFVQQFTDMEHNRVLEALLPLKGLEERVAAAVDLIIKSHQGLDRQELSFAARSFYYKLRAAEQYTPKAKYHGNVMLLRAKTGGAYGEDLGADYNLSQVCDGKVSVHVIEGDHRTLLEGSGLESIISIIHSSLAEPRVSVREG
Chain of Large T antigen (P03070 whole entry): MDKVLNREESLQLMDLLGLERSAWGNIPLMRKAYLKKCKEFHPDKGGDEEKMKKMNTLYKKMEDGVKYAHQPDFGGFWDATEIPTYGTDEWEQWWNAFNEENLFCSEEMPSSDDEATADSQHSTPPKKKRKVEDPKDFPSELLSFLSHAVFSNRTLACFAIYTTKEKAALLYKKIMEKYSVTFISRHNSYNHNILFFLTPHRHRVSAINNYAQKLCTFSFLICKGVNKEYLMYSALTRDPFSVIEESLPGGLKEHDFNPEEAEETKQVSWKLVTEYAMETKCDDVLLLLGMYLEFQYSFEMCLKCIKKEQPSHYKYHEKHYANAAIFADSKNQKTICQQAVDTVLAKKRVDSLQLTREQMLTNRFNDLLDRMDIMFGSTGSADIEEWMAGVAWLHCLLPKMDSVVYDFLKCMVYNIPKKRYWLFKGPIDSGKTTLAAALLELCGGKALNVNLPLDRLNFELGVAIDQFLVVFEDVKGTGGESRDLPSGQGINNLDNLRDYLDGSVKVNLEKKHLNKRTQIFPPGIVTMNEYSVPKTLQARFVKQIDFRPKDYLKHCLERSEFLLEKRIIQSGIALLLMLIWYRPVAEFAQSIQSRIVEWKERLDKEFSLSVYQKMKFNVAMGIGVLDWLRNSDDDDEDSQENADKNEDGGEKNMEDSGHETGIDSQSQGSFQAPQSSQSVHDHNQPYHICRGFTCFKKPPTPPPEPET
Chain of Cytochrome P450 2C19 (P33261 whole entry): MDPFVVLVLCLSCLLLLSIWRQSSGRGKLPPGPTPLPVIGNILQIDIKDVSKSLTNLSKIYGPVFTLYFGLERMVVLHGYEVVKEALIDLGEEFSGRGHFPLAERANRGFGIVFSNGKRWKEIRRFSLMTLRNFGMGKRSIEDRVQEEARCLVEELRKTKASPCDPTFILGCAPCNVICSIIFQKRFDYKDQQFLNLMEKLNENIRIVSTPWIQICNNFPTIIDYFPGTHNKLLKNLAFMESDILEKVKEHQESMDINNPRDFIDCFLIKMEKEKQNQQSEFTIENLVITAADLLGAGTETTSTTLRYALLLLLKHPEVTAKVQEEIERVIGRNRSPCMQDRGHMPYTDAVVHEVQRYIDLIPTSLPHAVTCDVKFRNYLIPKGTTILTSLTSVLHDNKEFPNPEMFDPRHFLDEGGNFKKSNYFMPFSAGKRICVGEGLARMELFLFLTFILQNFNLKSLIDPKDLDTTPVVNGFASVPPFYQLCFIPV
Chain of Paired box protein Pax-8 (Q06710 whole entry): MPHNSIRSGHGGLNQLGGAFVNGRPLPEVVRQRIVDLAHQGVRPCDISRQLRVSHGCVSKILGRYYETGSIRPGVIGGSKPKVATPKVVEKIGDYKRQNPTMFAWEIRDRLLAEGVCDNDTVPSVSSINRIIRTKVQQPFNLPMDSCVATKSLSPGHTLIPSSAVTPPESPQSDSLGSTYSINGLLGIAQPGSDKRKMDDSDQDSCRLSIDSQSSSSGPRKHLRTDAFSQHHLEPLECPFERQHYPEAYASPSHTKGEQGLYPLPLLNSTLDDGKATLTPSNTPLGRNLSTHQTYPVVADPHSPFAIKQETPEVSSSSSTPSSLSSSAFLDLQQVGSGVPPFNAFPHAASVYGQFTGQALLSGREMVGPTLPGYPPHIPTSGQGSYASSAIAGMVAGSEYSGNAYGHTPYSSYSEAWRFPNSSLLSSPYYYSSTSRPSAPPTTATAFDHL

## CN(C)c1ccc(C=C2C=CC=C2)cc1
Nonstructural protein 1
  IC50: 31.5 µM (active)

## O=c1oc2ccccc2c(O)c1/C=N/c1ccccn1
[1]
  EC50: > 112 µM (not active)
HEK293
  AC50: 162 µM (active)
[2]
  EC50: > 112 µM (not active)

## COC(=O)[C@]1(C)CC[C@@]2(C)CC[C@@]3(C)C4=CCc5c(cc(O)c(O)c5C)[C@]4(C)CC[C@@]3(C)C2C1 (stereo not given in full)
Cytochrome P450 3A4 [3]
  AC50: 39.8 µM (inconclusive)

## Cc1ccc(S(=O)(=O)NNc2nc3ccccc3nc2C(F)(F)F)cc1
[4]
  EC50: 21.5 µM (inconclusive)
[5]
  EC50: 39.8 µM (active)

## O=C(COc1ccc(Br)cc1)N1CCN(Cc2c[nH]c3ccccc23)CC1
INS1
  AC50: 3.34 µM (active)

## O=C(NCCc1ccccc1)c1ccccc1Cl
HEK293
  AC50: 3.98 µM (active)

## COc1cccc(C=NNC(=O)C[n+]2ccccc2)c1O
Nonstructural protein 1
  IC50: 10.4 µM (active)

## CCOC(=O)COn1c(=O)c(-c2cc3ccccc3o2)[n+]([O-])c2ccccc21
[4]
  EC50: 27.6 µM (active)
[5]
  EC50: > 300 µM (not active)

## O=C(CN1CC(=O)Oc2ccccc21)OCC(=O)c1ccccc1
Nonstructural protein 1
  IC50: 1.47 µM (active)

## CC1CC2C3CCC4=CC(=O)C=C[C@@]4(C)[C@]3(F)C(O)C[C@]2(C)[C@]1(O)C(=O)COP(=O)(O)O (stereo not given in full)
Cytochrome P450 3A4 [3]
  AC50: 39.8 µM (inconclusive)

## CC(=O)NNC(=O)N1Cc2ccccc2Oc2ccc(Cl)cc21
Cytochrome P450 2C19
  AC50: 5.01 µM (inconclusive)
Cytochrome P450 3A4 [3]
  AC50: 12.6 µM (inconclusive)
Cytochrome P450 1A2
  AC50: 31.6 µM (inconclusive)
Cytochrome P450 3A4 [6]
  AC50: 20 µM (inconclusive)

## CCOc1ccc(OCc2cccc(C(=O)N3CCCCCC3)c2)cc1
HEK293
  AC50: 4.36 µM (active)

## O=C1N=C(Nc2ccccc2Cl)S/C1=C\c1cc([N+](=O)[O-])ccc1O
[4]
  EC50: > 300 µM (not active)
[5]
  EC50: 10.9 µM (active)

## COc1cccc(/C=N/NC(=O)CN2CC(c3ccccc3)CC2=O)c1O (stereo not given)
INS1
  AC50: 6.51 µM (active)

## O=C(N/N=C/c1c(O)ccc2ccccc12)c1ccc(CO)nc1
Cells [7]
  EC50: 10.8 µM (active)
Nonstructural protein 1
  IC50: 10.6 µM (active)
Cells [8]
  EC50: > 350 µM (not active)

## COc1cccc(/C=N/Nc2ncnc(N)c2[N+](=O)[O-])c1OC
[4]
  EC50: > 300 µM (inconclusive)
[5]
  EC50: 18.4 µM (active)
HEK293
  AC50: 3.91 µM (active)

## Cc1ccc2oc(=O)c3c4cc(O)c(O)c(C)c4oc3c2c1
Cytochrome P450 3A4 [3]
  AC50: 12.6 µM (inconclusive)

## CCCCNC(=O)C(c1ccc(OCC(=O)OC)c(C(=O)OC)c1)N(CCC1=CCCCC1)C(=O)CCCCCN1C(=O)NC(c2ccc(-c3ccccc3)cc2)C(C(=O)OCc2ccccc2)=C1C (stereo not given)
Cytochrome P450 3A4 [3]
  AC50: 2.51 µM (inconclusive)

## O=C(CSc1nc2ccccc2c(=O)n1CCCN1CCOCC1)Nc1ccc(Br)cc1
HEK293
  AC50: > 350 µM (inactive)

## COc1ccc(C(=O)NNC(=O)c2cnccn2)cc1[N+](=O)[O-]
[4]
  EC50: 1.72 µM (active)
[5]
  EC50: 25.3 µM (active)
[9]
  EC50: > 195 µM (not active)

## COc1ccc(C2C(C#N)=C(/N=C/N3CCN(C)CC3)OC3=C2C(=O)CC(C)(C)C3)cc1OC (stereo not given)
[4]
  EC50: > 300 µM (not active)
[5]
  EC50: > 300 µM (not active)

## O=C(Nc1cccc(C(F)(F)F)c1)Nc1ccc(N2CCCC2)c(S(=O)(=O)Nc2ccccc2Cl)c1
[10]
  AC50: 848 nM (active)
[11]
  AC50: 5.53 µM (active)
[12]
  EC50: 3.89 µM (active)
[13]
  AC50: 4.42 µM (active)
[14]
  AC50: 5.49 µM (active)
INS1
  AC50: 3.57 µM (active)
[15]
  EC50: 4.39 µM (active)
Paired box protein Pax-8
  AC50: 6.41 µM (active)

## Cc1nnc(O)nc1Nc1ccc(O)cc1
Large T antigen
  IC50: 4.52 µM (active)

## Cc1c([N+](=O)[O-])cc(S(=O)(=O)Nc2ccc(-c3ccc(N4CCCC4)nn3)cc2)cc1[N+](=O)[O-]
Fatty acid synthase [16]
  IC50: 867 nM (active)
Fatty acid synthase [17]
  IC50: 524 nM (active)
[18]
  CC50: > 50 µM (active)

## CC1(OC(=O)CCc2ccccc2)C(=O)C=C2C=C(c3ccsc3)OC=C2C1=O (stereo not given)
[4]
  EC50: 28.2 µM (active)
[5]
  EC50: 49.7 µM (active)

## CCOC(=O)C1Nc2c(F)cc(C)cc2C2C=CCC12 (stereo not given)
[4]
  EC50: > 300 µM (not active)
[5]
  EC50: > 300 µM (not active)

## Cc1cccn2c(=O)c(/C=C(\C#N)C(N)=O)c(N3CCN(c4cccc(Cl)c4)CC3)nc12
Nonstructural protein 1
  IC50: > 100 µM (active)

## N#Cc1ccc(C23CC4(C2)[C@H](CN(Cc2ccc(-c5ccccc5)cc2)[C@@H]4c2ccccc2)C3c2ccccc2)cc1 (stereo not given in full)
Cytochrome P450 3A4 [3]
  AC50: 15.8 µM (inconclusive)

## COc1ccc(/C=N/NC(=O)CCc2nnc(O)nc2O)cc1O
Large T antigen
  IC50: 28.9 µM (active)
